Results published in publication PMC11521914 (Frontiers in Pharmacology, 2024).

Legend:
[1] = molecular target: Protein tyrosine phosphatase 1B (PTP-1B); experiment: Protein tyrosine phosphatase 1B (PTP-1B) enzyme activity inhibition assay; format: biochemical; details: rat liver supernatant, 10 mM pNPP
Method: One day before the isolation of the enzyme-containing subcellular fraction, lysis buffer was prepared (50 mM HEPES, 0.1 mM EGTA, 0.1 mM EDTA, 120 mM NaCl, 0.5% NP-40, pH 7.5) and enriched with one protease inhibitor cocktail tablet per 10 mL of buffer. The liver from an overnight-fasted healthy rat, previously anesthetized with isoflurane, was removed. The organ was then homogenized in lysis buffer as described by [Li et al. (2010)]. The homogenate was filtered and subsequently centrifuged at 14,000 g for 15 min at 4°C. Supernatants were collected and stored at −40°C until use.
Colorimetric assays were carried out to detect the dephosphorylation of pNPP, which is proportional to the activity of the PTP-1B enzyme. Three independent assays were performed in triplicate following the protocols proposed by [Guo et al. (2015)] and [Song et al. (2017)] with slight modifications. […] Finally, the absorbance was measured at 405 nm.
Finally, for in vitro experiments, absorbance values were transformed into activity percentages following the next formula: Enzyme activity %=AS−ASB/AC−ACB×100
Where A S is the absorbance of the inhibitor sample at a specific concentration, A SB is the blank of the inhibitor sample, A C is the highest absorbance (without inhibitor), and A CB is the blank of the highest absorbance. […]

[2] = system: STZ-NA-hyperglycemic rats; experiment: Pyruvate tolerance tests (inhibition of hepatic glucose production); format: in vivo, Wistar rats; details: rats fasted 18 h, pyruvate 2 g/kg i.p.; metformin 500 mg/kg b.w. oral
Method: Treatment administration (vehicle and samples) was performed orally with the help of an esophageal cannula. Blood samples were obtained from the tail vein and glucose measurements were performed in duplicate using Accu-Chek® Active glucometers.
In summary hyperglycemia was induced as described by [Masiello et al. (1998)], rats fasted for 12 h were administered intraperitoneally with 150 mg/kg b. w. of NA and, 15 min later, 65 mg/kg b. w. of STZ was injected intravenously. After 2 weeks, animals with blood glucose values above 180 mg/dL were selected to perform the tests described below.
After basal glucose measurement, animals received their corresponding treatment. Fifteen minutes later, rats were injected intraperitoneally with a pyruvate solution (2 g/kg b. w.). In total, 30 rats were divided into five groups (n = 6 each group): 1. Normoglycemic Control + pyruvate (NP), receiving physiological solution; 2. Hyperglycemic Control + pyruvate (HP), which was administered with physiological solution; 3. […] (HMP); 4. Hyperglycemic Group + pyruvate + EtOH-WCg, administered with 30 mg/kg b. w. (HCgP); and 5. […] (HJaP). After intraperitoneal injection, glucose levels were measured every 30 min for 2 h ([Mata-Torres et al., 2020]).

Protein tyrosine phosphatase 1B (PTP-1B), sequence (P20417 whole entry): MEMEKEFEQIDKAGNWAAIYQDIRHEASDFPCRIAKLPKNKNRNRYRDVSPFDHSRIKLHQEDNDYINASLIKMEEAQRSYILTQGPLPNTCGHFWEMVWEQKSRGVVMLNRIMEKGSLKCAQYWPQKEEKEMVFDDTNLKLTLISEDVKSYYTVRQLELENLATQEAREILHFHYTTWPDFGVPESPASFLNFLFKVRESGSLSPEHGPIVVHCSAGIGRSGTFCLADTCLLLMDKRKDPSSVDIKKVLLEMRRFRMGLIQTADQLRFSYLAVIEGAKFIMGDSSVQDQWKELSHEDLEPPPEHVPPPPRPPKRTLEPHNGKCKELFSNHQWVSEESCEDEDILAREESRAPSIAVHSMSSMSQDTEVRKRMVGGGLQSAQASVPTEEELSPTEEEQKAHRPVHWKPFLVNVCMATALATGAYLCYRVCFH

| Structure (SMILES) | IC50 ± SEM [1] [µg/mL] | Inhibition % [1] [%] | effect on the hyperglycemic peak 30 min after pyruvate injection [2] |
| --- | --- | --- | --- |
| [Na+].[Na+].[Na+].[O]=[V]([O-])([O-])[O-] [Na3VO4] | 43.2 ± 1.5 | 97 |  |
| CN(C)C(=N)N=C(N)N [metformin] |  |  | completely inhibited the hyperglycemic peak |
